# Reference: PubChem BioAssay AID2060349 (Molecular Pharmacology Branch, DTP, NCI, 2025)
# Values joined by “and” are separate entries in the source; they are usually repeats but may differ in a detail not shown here. Equal entries are not always repeated.
# Test system: 762968-020-R-J2-PDC spheroids viability
# Assay: Anticancer human tumor 762968-020-R-J2-PDC patient-derived colon carcinoma cell line growth inhibition [TAK]
# Conditions: spheroids with HUVEC and MSC; for viability, T/C: stronger effect = lower value
# From the text: Combinatorial screen of targeted agents with TAK-243 and ipatasertib in multi-cell type tumor spheroids
# A high-throughput screen of multi-cell type tumor spheroids was designed to identify active combinations of targeted small molecules and TAK-243 or ipatasertib. Complex spheroids include a stromal component modeled by human endothelial cells (HUVEC) and fibroblasts modeled by human mesenchymal stem cells (MSCs). The concentration ranges selected for each drug and investigational agent were based upon clinically achievable concentrations if the clinical Cmax of the agent was known.
# Compounds. The drugs and investigational agents: TAK-243 (785004), ipatasertib (767898), everolimus (733504), selumetinib (741078), bortezomib (756655), trametinib (758246), ixazomib (758254), vemurafenib (761431), dabrafenib (764134), sapanisertib (764658), alpelisib (765974), and copanlisib (816437), were obtained from the National Cancer Institute (NCI) Developmental Therapeutics Program Chemical Repository. The FDA-approved anticancer drug set is available from the NCI Developmental Therapeutics Program. […] The stock solutions were prepared in dimethyl sulfoxide (DMSO, Sigma-Aldrich, St. Louis, MO, cat. D2650) at 800-fold the tested concentration and stored at -70 degrees C prior to their use. All drugs and investigational agents were tested over a range starting from a high concentration at or near the clinical Cmax and decreasing in half-log increments. If the clinical Cmax for an agent had not been determined, the highest concentration tested was 10 microM.
# NCI60 Cell Culture. NCI60 cell lines were obtained from the NCI Developmental Therapeutics Program Tumor Repository. For each lot of cells, the Repository performed Applied Biosystems AmpFLSTR Identifiler testing with PCR amplification to confirm consistency with the published Identifier STR profile for each cell line. Cells were kept in continuous culture for no more than 20 passages. The optimal seeding densities for each of the cell lines at each time point assessed were determined prior to performing the concentration response studies. Briefly, the NCI60 human tumor lines were grown as monolayers in RPMI 1640 medium supplemented with 10% FBS and 2 mmol/L L-glutamine.
# An additional 2 lines were from the NCI60 cell line panel including melanomas, MALME-3M and SK-MEL-2. Pooled donor human umbilical vein endothelial cells (HUVEC, Lonza, cat. CC-2519) and human mesenchymal stem cells (hMSC, Lonza, cat. PT-2501) were purchased from Lonza (Walkersville, MD).
# PDMR cell lines were grown in complete medium (DC medium): Dulbecco's modified Eagle's medium (DMEM)/F12 supplemented with 5% fetal bovine serum (FBS), 2 mM L-glutamine, 100 U/mL penicillin and 100 µg/ml streptomycin, 0.4 µg/ml hydrocortisone, 10 ng/ml epidermal growth factor (EGF) recombinant human protein, 24 µg/mL adenine, and 0.1 mg/mL primocin. During culture from frozen stock vials, PDMR cells were cultured in the same medium containing 10 µM Y-27632 (see Table 3). The PDCs were cultured in complete DMEM/F12 media without 10 microM Y-27632 dihydrochloride for at least two passages prior to the screen. The pooled donor HUVEC and hMSC were cultured in endothelial cell growth medium 2 (PromoCell, Heidelberg, Germany, cat. C-22011) and mesenchymal stem cell growth medium 2 (PromoCell, cat. C-28009), respectively. For all experiments, HUVEC and hMSC were used at passages </=5.
# For the pre-screen, cell seeding densities were determined from a titration spanning the range from 5,000 to 313 cells per well. The mct-spheroids including 60% malignant cells, 25% HUVEC and 15% MSC dispensed as a mixture into U-bottom Ultra-Low Attachment 384-well plates (Corning, NY)
# High-throughput Drug Combination Screening.
# Prior to their inoculation into 384-well plates, malignant cells, HUVEC, and hMSC were removed from T flasks using TrypLE express (Thermo Fisher Scientific, cat. 12605036) and harvested by centrifugation for 5 min at 233 x g. […]
# [1] = curve of first compound, second compound 0.3 µM
# [2] = curve of first compound, second compound 0.949 µM
# [3] = curve of first compound, second compound 3 µM
# [4] = curve of first compound, second compound 9.49 µM
# [5] = curve of first compound, second compound 30 µM
# [6] = second compound 0.3 µM, first compound 0.0316 µM
# [7] = second compound 0.3 µM, first compound 0.1 µM
# [8] = second compound 0.949 µM, first compound 0.0316 µM
# [9] = second compound 0.949 µM, first compound 0.1 µM
# [10] = second compound 3 µM, first compound 0.0316 µM
# [11] = second compound 3 µM, first compound 0.1 µM
# [12] = second compound 9.49 µM, first compound 0.0316 µM
# [13] = second compound 9.49 µM, first compound 0.1 µM
# [14] = second compound 30 µM, first compound 0.0316 µM
# [15] = second compound 30 µM, first compound 0.1 µM
# 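Note: spheroids exposed to drug for 7 days before readout.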
# 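Throughout, for viability, T/C: 100% = DMSO vehicle control wells.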
smiles,measurement,setting,value
CC(C)(C)c1nc(-c2cccc(NS(=O)(=O)c3c(F)cccc3F)c2F)c(-c2ccnc(N)n2)s1 + CC(C)NCC(C(=O)N1CCN(c2ncnc3c2C(C)CC3O)CC1)c1ccc(Cl)cc1,IC50,[1],> 10000 nM
same,IC50,[2],> 10000 nM
same,IC50,[3],> 10000 nM
same,IC50,[4],> 10000 nM
same,IC50,[5],> 10000 nM
same,"viability, T/C",[6],92.8%
same,"viability, T/C",[7],91.4%
same,"viability, T/C","second compound 0.3 µM, first compound 0.316 µM",84.8%
same,"viability, T/C","second compound 0.3 µM, first compound 1 µM",84.3%
same,"viability, T/C","second compound 0.3 µM, first compound 3.16 µM",92.4%
same,"viability, T/C","second compound 0.3 µM, first compound 10 µM",94.7%
same,"viability, T/C",[8],93.9%
same,"viability, T/C",[9],90.2%
same,"viability, T/C","second compound 0.949 µM, first compound 0.316 µM",84.6%
same,"viability, T/C","second compound 0.949 µM, first compound 1 µM",86%
same,"viability, T/C","second compound 0.949 µM, first compound 3.16 µM",88.4%
same,"viability, T/C","second compound 0.949 µM, first compound 10 µM",92.8%
same,"viability, T/C",[10],95.6%
same,"viability, T/C",[11],87.1%
same,"viability, T/C","second compound 3 µM, first compound 0.316 µM",94.8%
same,"viability, T/C","second compound 3 µM, first compound 1 µM",85.9%
same,"viability, T/C","second compound 3 µM, first compound 3.16 µM",92%
same,"viability, T/C","second compound 3 µM, first compound 10 µM",95%
same,"viability, T/C",[12],92.5%
same,"viability, T/C",[13],86.4%
same,"viability, T/C","second compound 9.49 µM, first compound 0.316 µM",83.9%
same,"viability, T/C","second compound 9.49 µM, first compound 1 µM",79.9%
same,"viability, T/C","second compound 9.49 µM, first compound 3.16 µM",72%
same,"viability, T/C","second compound 9.49 µM, first compound 10 µM",92.5%
same,"viability, T/C",[14],81.4%
same,"viability, T/C",[15],80.5%
same,"viability, T/C","second compound 30 µM, first compound 0.316 µM",81.6%
same,"viability, T/C","second compound 30 µM, first compound 1 µM",74.1%
same,"viability, T/C","second compound 30 µM, first compound 3.16 µM",74.5%
same,"viability, T/C","second compound 30 µM, first compound 10 µM",93.5%
COc1c(OCCCN2CCOCC2)ccc2c3n(c(=NC(=O)c4cnc(N)nc4)nc12)CCN3,"viability, T/C",compound 0.00316 µM,101% and 102%
same,"viability, T/C",compound 0.01 µM,95.3% and 72%
same,"viability, T/C",compound 0.0316 µM,93% and 53.6%
same,"viability, T/C",compound 0.1 µM,80.6% and 42.5%
same,"viability, T/C",compound 0.316 µM,76.2% and 50.6%
same,"viability, T/C",compound 1 µM,73.9% and 52.4%
COC1CC2CCC(C)C(O)(O2)C(=O)C(=O)N2CCCCC2C(=O)OC(C(C)CC2CCC(OCCO)C(OC)C2)CC(=O)C(C)C=C(C)C(O)C(OC)C(=O)C(C)CC(C)C=CC=CC=C1C (stereo not given),"viability, T/C",compound 0.000316 µM,103% and 106%
same,"viability, T/C",compound 0.001 µM,99.4% and 100%
same,"viability, T/C",compound 0.00316 µM,104% and 96.8%
same,"viability, T/C",compound 0.01 µM,105% and 107%
same,"viability, T/C",compound 0.0316 µM,101% and 107%
same,"viability, T/C",compound 0.1 µM,99.1% and 95.3%
same,IC50,curve of compound,> 100 nM
Cn1cnc2c(F)c(Nc3ccc(Br)cc3Cl)c(C(=O)NOCCO)cc21,"viability, T/C",compound 0.00949 µM,103% and 98.9%
same,"viability, T/C",compound 0.03 µM,93.8% and 91.6%
same,"viability, T/C",compound 0.0949 µM,89% and 82%
same,"viability, T/C",compound 0.3 µM,83.4% and 78.8%
same,"viability, T/C",compound 0.949 µM,67.7% and 64.5%
same,"viability, T/C",compound 3 µM,49.1% and 44.4%
same,IC50,curve of compound,2950 nM and 2240 nM
CC(C)n1nc(-c2ccc3oc(N)nc3c2)c2c(N)ncnc21 + CC(C)NCC(C(=O)N1CCN(c2ncnc3c2C(C)CC3O)CC1)c1ccc(Cl)cc1,IC50,[1],> 100 nM
same,IC50,[2],> 100 nM
same,IC50,[3],> 100 nM
same,IC50,[4],> 100 nM
same,IC50,[5],> 100 nM
same,"viability, T/C","second compound 0.3 µM, first compound 0.000316 µM",96.5%
same,"viability, T/C","second compound 0.3 µM, first compound 0.001 µM",97.1%
same,"viability, T/C","second compound 0.3 µM, first compound 0.00316 µM",101%
same,"viability, T/C","second compound 0.3 µM, first compound 0.01 µM",91.8%
same,"viability, T/C",[6],87.5%
same,"viability, T/C",[7],72.9%
same,"viability, T/C","second compound 0.949 µM, first compound 0.000316 µM",96.9%
same,"viability, T/C","second compound 0.949 µM, first compound 0.001 µM",96.7%
same,"viability, T/C","second compound 0.949 µM, first compound 0.00316 µM",99.9%
same,"viability, T/C","second compound 0.949 µM, first compound 0.01 µM",99.3%
same,"viability, T/C",[8],87.4%
same,"viability, T/C",[9],73.2%
same,"viability, T/C","second compound 3 µM, first compound 0.000316 µM",99.5%
same,"viability, T/C","second compound 3 µM, first compound 0.001 µM",95.1%
same,"viability, T/C","second compound 3 µM, first compound 0.00316 µM",103%
same,"viability, T/C","second compound 3 µM, first compound 0.01 µM",93.4%
same,"viability, T/C",[10],92.3%
same,"viability, T/C",[11],65.7%
same,"viability, T/C","second compound 9.49 µM, first compound 0.000316 µM",94.4%
same,"viability, T/C","second compound 9.49 µM, first compound 0.001 µM",103%
same,"viability, T/C","second compound 9.49 µM, first compound 0.00316 µM",98.3%
same,"viability, T/C","second compound 9.49 µM, first compound 0.01 µM",93.4%
same,"viability, T/C",[12],79.1%
same,"viability, T/C",[13],63.5%
same,"viability, T/C","second compound 30 µM, first compound 0.000316 µM",83%
same,"viability, T/C","second compound 30 µM, first compound 0.001 µM",84.2%
same,"viability, T/C","second compound 30 µM, first compound 0.00316 µM",84.3%
same,"viability, T/C","second compound 30 µM, first compound 0.01 µM",81.9%
same,"viability, T/C",[14],74%
same,"viability, T/C",[15],63.6%
